From US8349824B2, “Triazolopyridine compounds” (Hoffmann-La Roche Inc., priority 2010, dated 2013)

Assays:
human PDE10A full length = target: T1, human PDE10A full length (Homo sapiens, UniProt Q9Y233); assay: PDE10A Scintillation Proximity Assay (SPA), human PDE10A full length assay; type: biochemical; conditions: 50 nM cGMP + 50 nM [3H]-cGMP, 20 minutes at room temperature, read-out: PDE10A inhibition IC50
T1 construct: purchased Enzo Life Science, Lausen, Switzerland SE-534
Procedure: The following test was carried out in order to determine the activity of the compounds of the present invention. PDE10 activity of the compounds of the present invention was determined using a Scintillation Proximity Assay (SPA)-based method similar to the one previously described (Fawcett, L. et al., Proc Natl Acad Sci USA (2000) 97(7):3702-3707).
The human PDE10A full length assay was performed in 96-well micro titer plates. The reaction mixture of 50 μl contained 20 mM HEPES pH=7.5/10 mM MgCl2/0.05 mg/ml BSA (Sigma cat. #A-7906), 50 nM cGMP (Sigma, cat. #G6129) and 50 nM [^3H]-cGMP (GE Healthcare, cat. #TRK392 S.A. 13.2Ci/mmol), 3.75 ng/well PDE10A enzyme (Enzo Life Science, Lausen, Switzerland cat #SE-534) with or without a specific test compound. A range of concentrations of the potential inhibitor was used to generate data for calculating the concentration of inhibitor resulting in 50% of the effect (e.g. IC50, the concentration of the competitor inhibiting PDE10A activity by 50%). Non-specific activity was tested without the enzyme. The reaction was initiated by the addition of the substrate solution (cGMP and [^3H]-cGMP) and allowed to progress for 20 minutes at room temperature. The reaction was terminated by adding 25 μl of YSi-SPA scintillation beads (GE Healthcare, cat. #RPNQ0150) in 18 mM zinc sulphate solution (stop reagent). After 1 h under shaking, the plate was centrifuged one minute at 170 g to allow beads to settle. Afterwards, radioactive counts were measured on a Perkin Elmer TopCount Scintillation plate reader.

T1 sequence (Q9Y233 1-779 isoform Q9Y233-1): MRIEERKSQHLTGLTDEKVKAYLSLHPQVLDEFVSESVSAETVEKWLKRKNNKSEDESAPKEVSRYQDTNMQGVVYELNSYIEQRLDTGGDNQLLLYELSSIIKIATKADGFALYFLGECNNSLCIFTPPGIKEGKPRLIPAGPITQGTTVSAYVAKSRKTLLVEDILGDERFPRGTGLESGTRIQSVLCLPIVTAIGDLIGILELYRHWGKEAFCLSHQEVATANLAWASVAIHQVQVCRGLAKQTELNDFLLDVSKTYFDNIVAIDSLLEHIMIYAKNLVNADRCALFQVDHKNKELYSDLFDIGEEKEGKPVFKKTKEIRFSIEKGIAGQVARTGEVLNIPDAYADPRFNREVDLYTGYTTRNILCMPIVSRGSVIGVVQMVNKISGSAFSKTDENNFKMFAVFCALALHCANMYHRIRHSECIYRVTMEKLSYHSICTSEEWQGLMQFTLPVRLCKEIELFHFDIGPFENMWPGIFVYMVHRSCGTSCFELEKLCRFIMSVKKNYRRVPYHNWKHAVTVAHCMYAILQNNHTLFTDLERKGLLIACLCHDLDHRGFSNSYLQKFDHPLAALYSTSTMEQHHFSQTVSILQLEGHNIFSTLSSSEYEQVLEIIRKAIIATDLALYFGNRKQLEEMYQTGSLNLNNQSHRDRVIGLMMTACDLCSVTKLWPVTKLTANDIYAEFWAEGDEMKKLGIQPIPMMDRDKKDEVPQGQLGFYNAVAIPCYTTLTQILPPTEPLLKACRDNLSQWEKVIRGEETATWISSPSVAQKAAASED

IC50 (human PDE10A full length) [nM]	melting point [°C]	SMILES
51.9	272 to 273	Cn1ncc(C(=O)N2C[C@H]3C[C@@H]2CO3)c1C(=O)Nc1ccn2nc(-c3cccnc3)nc2c1 (stereo in doubt) [Example 57, 2-Methyl-4-((1R,4R)-2-oxa-5-aza-bicyclo[2.2.1]heptane-5-carbonyl)-2H-pyrazole-3-carboxylic acid (2-pyridin-3-yl-[1,2,4]triazolo[1,5-a]pyridin-7-yl)-amide]
14.6	243 to 247	COC(=O)c1cnn(C)c1C(=O)Nc1ccn2nc(-c3ccccc3)nc2c1 [Example 1, methyl 1-methyl-5-(2-phenyl-[1,2,4]triazolo[1,5-a]pyridin-7-ylcarbamoyl)-1H-pyrazole-4-carboxylate]
24.9	> 300	Cn1ncc(C(=O)O)c1C(=O)Nc1ccn2nc(-c3ccccc3)nc2c1 [Example 2, 1-Methyl-5-(2-phenyl-[1,2,4]triazolo[1,5-a]pyridin-7-ylcarbamoyl)-1H-pyrazole-4-carboxylic acid]
0.71	243 to 245	Cn1ncc(C(=O)N2CCC2)c1C(=O)Nc1ccn2nc(-c3ccccc3)nc2c1 [Example 3, 4-(Azetidine-1-carbonyl)-2-methyl-2H-pyrazole-3-carboxylic acid (2-phenyl-[1,2,4]triazolo[1,5-a]pyridin-7-yl)-amide]
0.28	172 to 175	COCCN(C)C(=O)c1cnn(C)c1C(=O)Nc1ccn2nc(-c3ccccc3)nc2c1 [Example 4, N4-(2-methoxyethyl)-N4,1-dimethyl-N5-(2-phenyl-[1,2,4]triazolo[1,5-a]pyridin-7-yl)-1H-pyrazole-4,5-dicarboxamide]
0.5	193 to 194	CCN(C)C(=O)c1cnn(C)c1C(=O)Nc1ccn2nc(-c3ccccc3)nc2c1 [Example 5, N4-ethyl-N4,1-dimethyl-N5-(2-phenyl-[1,2,4]triazolo[1,5-a]pyridin-7-yl)-1H-pyrazole-4,5-dicarboxamide]
1.63	253 to 255	CCNC(=O)c1cnn(C)c1C(=O)Nc1ccn2nc(-c3ccccc3)nc2c1 [Example 7, N4-ethyl-1-methyl-N5-(2-phenyl-[1,2,4]triazolo[1,5-a]pyridin-7-yl)-1H-pyrazole-4,5-dicarboxamide]
1.88	232 to 234	Cn1ncc(C(=O)N2CCC2)c1C(=O)Nc1ccn2nc(N3CCOCC3)nc2c1 [Example 8, 4-(Azetidine-1-carbonyl)-1-methyl-N-(2-morpholino-[1,2,4]triazolo[1,5-a]pyridin-7-yl)-1H-pyrazole-5-carboxamide]
16.3	243 to 245	Cc1c(NC(=O)c2c(C(=O)N3CCC3)cnn2C)ccn2nc(-c3ccccc3)nc12 [Example 9, 4-(Azetidine-1-carbonyl)-1-methyl-N-(8-methyl-2-phenyl-[1,2,4]triazolo[1,5-a]pyridin-7-yl)-1H-pyrazole-5-carboxamide]
0.19	226 to 228	Cc1cn2nc(-c3ccccc3)nc2cc1NC(=O)c1c(C(=O)N2CCC2)cnn1C [Example 10, 4-(Azetidine-1-carbonyl)-1-methyl-N-(6-methyl-2-phenyl-[1,2,4]triazolo[1,5-a]pyridin-7-yl)-1H-pyrazole-5-carboxamide]
0.9	> 250	CN(C)C(=O)c1cnn(C)c1C(=O)Nc1ccn2nc(-c3ccccc3)nc2c1 [Example 11, 2-Methyl-2H-pyrazole-3,4-dicarboxylic acid 4-dimethylamide 3-[(2-phenyl-[1,2,4]triazolo[1,5-a]pyridin-7-yl)-amide]]
0.13	210 to 215	Cn1ncc(C(=O)N2CCCC2)c1C(=O)Nc1ccn2nc(-c3ccccc3)nc2c1 [Example 13, 1-Methyl-N-(2-phenyl-[1,2,4]triazolo[1,5-a]pyridin-7-yl)-4-(pyrrolidine-1-carbonyl)-1H-pyrazole-5-carboxamide]
12.4	> 250	Cn1ncc(C(=O)N[C@H]2CCOC2)c1C(=O)Nc1ccn2nc(-c3ccccc3)nc2c1 [Example 14, (S)-1-Methyl-N5-(2-phenyl-[1,2,4]triazolo[1,5-a]pyridin-7-yl)-N4-(tetrahydrofuran-3-yl)-1H-pyrazole-4,5-dicarboxamide]
4.85	> 250	Cn1ncc(C(=O)N[C@@H]2CCOC2)c1C(=O)Nc1ccn2nc(-c3ccccc3)nc2c1 [Example 15, (R)-1-Methyl-N5-(2-phenyl-[1,2,4]triazolo[1,5-a]pyridin-7-yl)-N4-(tetrahydrofuran-3-yl)-1H-pyrazole-4,5-dicarboxamide]
2.34	191 to 193	COCCCNC(=O)c1cnn(C)c1C(=O)Nc1ccn2nc(-c3ccccc3)nc2c1 [Example 16, N4-(3-Methoxypropyl)-1-methyl-N5-(2-phenyl-[1,2,4]triazolo[1,5-a]pyridin-7-yl)-1H-pyrazole-4,5-dicarboxamide]
11.8	> 250	Cn1ncc(C(=O)NC2COC2)c1C(=O)Nc1ccn2nc(-c3ccccc3)nc2c1 [Example 17, 1-Methyl-N4-(oxetan-3-yl)-N5-(2-phenyl-[1,2,4]triazolo[1,5-a]pyridin-7-yl)-1H-pyrazole-4,5-dicarboxamide]
0.25	177 to 179	CCN(CC)C(=O)c1cnn(C)c1C(=O)Nc1ccn2nc(-c3ccccc3)nc2c1 [Example 18, N4,N4-diethyl-1-methyl-N5-(2-phenyl-[1,2,4]triazolo[1,5-a]pyridin-7-yl)-1H-pyrazole-4,5-dicarboxamide]
5.38	> 250	CC(C)NC(=O)c1cnn(C)c1C(=O)Nc1ccn2nc(-c3ccccc3)nc2c1 [Example 19, N4-isopropyl-1-methyl-N5-(2-phenyl-[1,2,4]triazolo[1,5-a]pyridin-7-yl)-1H-pyrazole-4,5-dicarboxamide]
1.24	110 to 150	Cc1ccc(CN(C)C(=O)c2cnn(C)c2C(=O)Nc2ccn3nc(-c4ccccc4)nc3c2)cn1 [Example 20, N4,1-dimethyl-N4-((6-methylpyridin-3-yl)methyl)-N5-(2-phenyl-[1,2,4]triazolo[1,5-a]pyridin-7-yl)-1H-pyrazole-4,5-dicarboxamide]
9.01	> 250	Cn1ncc(C(=O)N2CCS(=O)(=O)CC2)c1C(=O)Nc1ccn2nc(-c3ccccc3)nc2c1 [Example 22, 4-(1,1-Dioxo-thiomorpholine-4-carbonyl)-2-methyl-2H-pyrazole-3-carboxylic acid (2-phenyl-[1,2,4]triazolo[1,5-a]pyridin-7-yl)-amide]
4.25	> 250	CNC(=O)c1cnn(C)c1C(=O)Nc1ccn2nc(-c3ccccc3)nc2c1 [Example 23, N4,1-dimethyl-N5-(2-phenyl-[1,2,4]triazolo[1,5-a]pyridin-7-yl)-1H-pyrazole-4,5-dicarboxamide]
21.5	269 to 270	COC1CN(C(=O)c2cnn(C)c2C(=O)Nc2ccn3nc(-c4ccccc4)nc3c2)C1 [Example 24, 4-(3-Methoxyazetidine-1-carbonyl)-1-methyl-N-(2-phenyl-[1,2,4]triazolo[1,5-a]pyridin-7-yl)-1H-pyrazole-5-carboxamide]
0.39	259 to 262	Cn1ncc(C(=O)N2CC(F)C2)c1C(=O)Nc1ccn2nc(-c3ccccc3)nc2c1 [Example 25, 4-(3-Fluoroazetidine-1-carbonyl)-1-methyl-N-(2-phenyl-[1,2,4]triazolo[1,5-a]pyridin-7-yl)-1H-pyrazole-5-carboxamide]
7.3	242 to 243	CCOC(=O)c1cnn(C)c1C(=O)Nc1ccn2nc(-c3ccccc3)nc2c1 [Example 28, ethyl 1-methyl-5-(2-phenyl-[1,2,4]triazolo[1,5-a]pyridin-7-ylcarbamoyl)-1H-pyrazole-4-carboxylate]
40.5	206 to 208	Cn1ncc(C(=O)N2CCOCC2)c1C(=O)Nc1ccn2nc(N3CCOCC3)nc2c1 [Example 29, 1-Methyl-4-(morpholine-4-carbonyl)-N-(2-morpholino-[1,2,4]triazolo[1,5-a]pyridin-7-yl)-1H-pyrazole-5-carboxamide]
1.27	> 250	Cn1ncc(C(=O)N2CCC2)c1C(=O)Nc1cc2nc(-c3ccccc3)nn2cc1F [Example 30, 4-(Azetidine-1-carbonyl)-N-(6-fluoro-2-phenyl-[1,2,4]triazolo[1,5-a]pyridin-7-yl)-1-methyl-1H-pyrazole-5-carboxamide]
16.1	–	Cn1ncc(C(=O)N2CCOCC2)c1C(=O)Nc1ccn2nc(N3CCCC3=O)nc2c1 [Example 133, Methyl-4-(morpholine-4-carbonyl)-N-(2-(2-oxopyrrolidin-1-yl)-[1,2,4]triazolo[1,5-a]pyridin-7-yl)-1H-pyrazole-5-carboxamide]
